Where two headings read alike, the source gives them in different places.
Experiments:
Assay in all cases: CDK inhibition assay (microfluidic LabChip, IC50 format)
CDK2-CYCLINA = target: T1, CDK2-CYCLINA (Homo sapiens, UniProt P24941); type: biochemical; conditions: read-out: CDK2 CyclinA IC50
T1 construct: purchased Millipore

CDK6-CYCLIND3 = target: T2, CDK6-CYCLIND3 (Homo sapiens, UniProt Q00534); type: biochemical; conditions: read-out: CDK6 CyclinD3 IC50
T2 construct: purchased Carna

CDK7 CyclinH = CDK7 CyclinH (Homo sapiens, UniProt P50613); type: biochemical
CDK9-CYCLINT1 = target: T3, CDK9-CYCLINT1 (Homo sapiens, UniProt P50750); type: biochemical; conditions: read-out: CDK9 CyclinT1 IC50
T3 construct: purchased Carna

CDK4-CYCLIND1 = CDK4-CYCLIND1 (Homo sapiens, UniProt P11802); conditions: a second value in parentheses for some compounds
[1] = CDK4 CyclinD1 IC50, Table 4b, lower part

CDK4-CYCLIND1, sequence (P11802 whole entry): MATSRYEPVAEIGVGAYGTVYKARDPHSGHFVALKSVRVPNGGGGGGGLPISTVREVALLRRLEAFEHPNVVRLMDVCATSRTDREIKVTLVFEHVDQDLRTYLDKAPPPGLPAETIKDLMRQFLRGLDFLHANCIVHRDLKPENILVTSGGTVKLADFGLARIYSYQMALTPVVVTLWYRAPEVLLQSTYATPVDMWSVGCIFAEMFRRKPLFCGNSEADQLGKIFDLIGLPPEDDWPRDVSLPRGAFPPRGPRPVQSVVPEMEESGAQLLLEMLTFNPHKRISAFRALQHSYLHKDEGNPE
CDK4-CYCLIND1, sequence (P24385 whole entry partner): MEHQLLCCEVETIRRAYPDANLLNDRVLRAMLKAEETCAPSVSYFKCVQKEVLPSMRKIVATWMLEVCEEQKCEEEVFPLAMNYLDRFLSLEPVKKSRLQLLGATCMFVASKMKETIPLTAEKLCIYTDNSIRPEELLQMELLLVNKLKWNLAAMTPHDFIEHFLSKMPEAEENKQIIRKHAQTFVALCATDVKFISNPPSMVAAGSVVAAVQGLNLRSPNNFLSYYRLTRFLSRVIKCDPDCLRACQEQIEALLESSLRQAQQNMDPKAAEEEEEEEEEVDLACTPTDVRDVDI
T2 sequence (Q00534 whole entry): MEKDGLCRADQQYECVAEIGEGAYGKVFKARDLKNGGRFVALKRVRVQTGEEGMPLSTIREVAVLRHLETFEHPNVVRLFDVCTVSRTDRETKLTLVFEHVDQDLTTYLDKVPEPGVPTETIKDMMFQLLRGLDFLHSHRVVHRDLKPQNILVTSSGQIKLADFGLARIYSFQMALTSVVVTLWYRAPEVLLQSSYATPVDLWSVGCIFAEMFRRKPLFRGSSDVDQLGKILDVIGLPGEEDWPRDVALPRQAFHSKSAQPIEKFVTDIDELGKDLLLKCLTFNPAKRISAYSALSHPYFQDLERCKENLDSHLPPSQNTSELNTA
T2 sequence (P30281 whole entry partner): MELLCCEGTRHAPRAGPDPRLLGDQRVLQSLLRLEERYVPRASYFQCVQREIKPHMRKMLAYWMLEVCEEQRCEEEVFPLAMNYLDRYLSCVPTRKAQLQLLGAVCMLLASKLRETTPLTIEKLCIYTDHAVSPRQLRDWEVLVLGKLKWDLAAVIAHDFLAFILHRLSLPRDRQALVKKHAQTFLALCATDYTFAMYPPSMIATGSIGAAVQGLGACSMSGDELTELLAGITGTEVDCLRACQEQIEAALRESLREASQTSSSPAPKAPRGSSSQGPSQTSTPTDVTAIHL
CDK7 CyclinH, sequence (P50613 whole entry): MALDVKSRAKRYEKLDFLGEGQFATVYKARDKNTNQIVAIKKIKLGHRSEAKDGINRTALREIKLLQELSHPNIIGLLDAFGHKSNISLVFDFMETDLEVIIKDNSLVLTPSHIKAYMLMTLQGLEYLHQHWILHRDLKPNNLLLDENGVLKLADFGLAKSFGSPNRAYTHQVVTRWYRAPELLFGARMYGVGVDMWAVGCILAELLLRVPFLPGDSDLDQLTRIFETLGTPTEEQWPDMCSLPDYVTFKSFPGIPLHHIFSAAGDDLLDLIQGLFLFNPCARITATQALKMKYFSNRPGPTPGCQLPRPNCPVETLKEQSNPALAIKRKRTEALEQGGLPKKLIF
CDK7 CyclinH, sequence (P51946 whole entry partner): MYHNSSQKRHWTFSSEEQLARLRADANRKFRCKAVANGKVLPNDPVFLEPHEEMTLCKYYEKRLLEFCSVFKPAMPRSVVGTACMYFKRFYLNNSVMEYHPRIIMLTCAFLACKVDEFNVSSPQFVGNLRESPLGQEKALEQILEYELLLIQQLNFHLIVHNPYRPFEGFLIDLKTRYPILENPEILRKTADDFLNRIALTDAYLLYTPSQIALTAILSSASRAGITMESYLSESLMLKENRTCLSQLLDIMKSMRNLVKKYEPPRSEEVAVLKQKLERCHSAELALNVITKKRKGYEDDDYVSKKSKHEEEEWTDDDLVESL
CDK7 CyclinH, sequence (P51948 whole entry partner): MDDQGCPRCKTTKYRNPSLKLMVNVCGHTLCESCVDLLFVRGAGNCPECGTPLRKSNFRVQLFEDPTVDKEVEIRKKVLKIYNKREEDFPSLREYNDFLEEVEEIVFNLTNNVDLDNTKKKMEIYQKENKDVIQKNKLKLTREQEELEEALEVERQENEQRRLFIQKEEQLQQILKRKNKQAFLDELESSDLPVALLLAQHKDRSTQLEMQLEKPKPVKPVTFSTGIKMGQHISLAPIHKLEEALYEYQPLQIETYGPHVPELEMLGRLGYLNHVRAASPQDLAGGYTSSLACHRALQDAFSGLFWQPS
T3 sequence (P50750 whole entry): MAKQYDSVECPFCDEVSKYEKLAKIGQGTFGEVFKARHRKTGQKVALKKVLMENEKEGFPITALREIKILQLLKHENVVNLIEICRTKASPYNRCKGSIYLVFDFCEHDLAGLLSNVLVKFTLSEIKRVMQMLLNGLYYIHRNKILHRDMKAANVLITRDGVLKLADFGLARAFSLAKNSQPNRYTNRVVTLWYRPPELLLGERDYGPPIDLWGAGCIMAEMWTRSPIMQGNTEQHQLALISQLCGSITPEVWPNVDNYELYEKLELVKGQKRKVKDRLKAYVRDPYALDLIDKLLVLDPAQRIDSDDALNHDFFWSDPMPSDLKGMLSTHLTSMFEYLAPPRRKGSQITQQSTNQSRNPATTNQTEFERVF
T3 sequence (O60563 whole entry partner): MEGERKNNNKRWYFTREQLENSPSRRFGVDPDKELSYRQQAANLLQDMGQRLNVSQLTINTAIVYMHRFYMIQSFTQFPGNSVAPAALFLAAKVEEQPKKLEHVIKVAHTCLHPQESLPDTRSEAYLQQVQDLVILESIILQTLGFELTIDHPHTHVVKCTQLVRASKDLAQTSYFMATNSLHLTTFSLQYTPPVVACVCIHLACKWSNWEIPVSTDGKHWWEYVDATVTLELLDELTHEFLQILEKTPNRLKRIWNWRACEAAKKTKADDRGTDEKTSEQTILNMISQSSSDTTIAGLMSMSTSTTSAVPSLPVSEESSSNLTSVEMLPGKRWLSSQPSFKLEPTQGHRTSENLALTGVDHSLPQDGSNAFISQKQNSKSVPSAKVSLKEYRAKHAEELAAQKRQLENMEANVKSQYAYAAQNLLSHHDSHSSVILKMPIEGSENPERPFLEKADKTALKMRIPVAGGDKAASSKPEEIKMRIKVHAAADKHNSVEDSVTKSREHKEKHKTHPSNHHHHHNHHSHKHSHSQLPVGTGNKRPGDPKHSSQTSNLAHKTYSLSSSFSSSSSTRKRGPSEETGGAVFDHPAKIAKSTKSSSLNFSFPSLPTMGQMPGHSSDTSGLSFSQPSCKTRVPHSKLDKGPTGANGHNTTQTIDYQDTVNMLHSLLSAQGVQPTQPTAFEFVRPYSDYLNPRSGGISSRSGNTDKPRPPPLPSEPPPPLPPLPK

Row | SMILES | IC50 (CDK2-CYCLINA; Table 4a) | IC50 (CDK6-CYCLIND3; Table 4a) | IC50 (CDK7 CyclinH; Table 4a) | IC50 (CDK9-CYCLINT1; Table 4a) | IC50 (CDK4-CYCLIND1; CDK4 CyclinD1 IC50, Table 4a) | IC50 (CDK2-CYCLINA; Table 4b, lower part) | IC50 (CDK6-CYCLIND3; Table 4b, lower part) | IC50 (CDK7 CyclinH; Table 4b, lower part) | IC50 (CDK9-CYCLINT1; Table 4b, lower part) | IC50 (CDK4-CYCLIND1; [1])
1 | O=C1NCC[C@@]12Cc1cnc(Nc3ccc(N4CC5(CNC5)C4)c(F)c3)nc1N(C1CCCC1)C2=O [Example D173, (S)-8-cyclopentyl-2-((3-fluoro-4-(2,6-diazaspiro[3.3]heptan-2-yl)phenyl)amino)-5,8-dihydro-7H-spiro[pyrido[2,3-d]pyrimidine-6,3′-pyrrolidine]-2′,7-dione] | 110 nM | 11.6 nM | 682 nM | 5.74 nM | 5.37 nM | – | – | – | – | –
2 | Cc1cc(Nc2ncc3c(n2)N(C2CCCC2)C(=O)[C@]2(CCNC2=O)C3)ccc1N1CCN(C)CC1 [Example D157, (S)-8-cyclopentyl-2-((3-methyl-4-(4-methylpiperazin-1-yl)phenyl)amino)-5,8-dihydro-7H-spiro[pyrido[2,3-d]pyrimidine-6,3′-pyrrolidine]-2′,7-dione] | 18.3 nM | 1.51 nM | 164 nM | 3.67 nM | 0.908 nM | – | – | – | – | –
3 | Cc1cc(N2CCN(C(C)C)CC2)ccc1Nc1ncc2c(n1)N(C1CCCC1)C(=O)[C@]1(CCNC1=O)C2 [Example D164, (S)-8-cyclopentyl-2-((4-(4-isopropylpiperazin-1-yl)-2-methylphenyl)amino)-5,8-dihydro-7H-spiro[pyrido[2,3-d]pyrimidine-6,3′-pyrrolidine]-2′,7-dione] | 744 nM | 13.7 nM | 3160 nM | 71.9 nM | 9.05 nM | – | – | – | – | –
4 | O=C1NCC[C@@]12Cc1cnc(Nc3ccc(N4CCC(N5CCOCC5)CC4)cn3)nc1N(C1CCCC1)C2=O [Example D181, (S)-8-cyclopentyl-2-((5-(4-morpholinopiperidin-1-yl)pyridin-2-yl)amino)-5,8-dihydro-7H-spiro[pyrido[2,3-d]pyrimidine-6,3′-pyrrolidine]-2′,7-dione] | – | – | – | – | – | 5820 nM | 6.79 nM | 40900 nM | 818 nM | 4.3 nM
5 | CC(C)N1CC2(CN(c3ccc(Nc4ncc5c(n4)N(C4CCCC4)C(=O)[C@]4(CCNC4=O)C5)nc3)C2)C1 [Example D171, (S)-8-cyclopentyl-2-((5-(6-isopropyl-2,6-diazaspiro[3.3]heptan-2-yl)pyridin-2-yl)amino)-5,8-dihydro-7H-spiro[pyrido[2,3-d]pyrimidine-6,3′-pyrrolidine]-2′,7-dione] | 2840 nM | 3.78 nM | 26500 nM | 271 nM | 1.98 nM | – | – | – | – | –
6 | CN1CCN(c2ccc(Nc3ncc4c(n3)N(C3CCCC3)C(=O)[C@]3(CCNC3=O)C4)c(F)c2)CC1 [Example D147, (S)-8-cyclopentyl-2-((2-fluoro-4-(4-methylpiperazin-1-yl)phenyl)amino)-5,8-dihydro-7H-spiro[pyrido[2,3-d]pyrimidine-6,3′-pyrrolidine]-2′,7-dione] | 951 nM | 188 nM | 4260 nM | 518 nM | 73.2 nM | – | – | – | – | –
7 | CN1CCN(c2ccc(Nc3ncc4c(n3)N(C35CC(C3)C5)C(=O)[C@]3(CCNC3=O)C4)nc2)CC1 [Example D188, (S)-8-(bicyclo[1.1.1]pentan-1-yl)-2-((5-(4-methylpiperazin-1-yl)pyridin-2-yl)amino)-5,8-dihydro-7H-spiro[pyrido[2,3-d]pyrimidine-6,3′-pyrrolidine]-2′,7-dione] | – | – | – | – | – | > 100000 nM | 21700 nM | > 100000 nM | > 100000 nM | 10600 nM
8 | CN1CCN(c2ccc(Nc3ncc4c(n3)N(C35CC(C3)C5)C(=O)C3(CCNC3=O)C4)cc2F)CC1 (centres unmarked) [Example D183, 8-(bicyclo[1.1.1]pentan-1-yl)-2-((3-fluoro-4-(4-methylpiperazin-1-yl)phenyl)amino)-5,8-dihydro-7H-spiro[pyrido[2,3-d]pyrimidine-6,3′-pyrrolidine]-2′,7-dione] | – | – | – | – | – | 2430 nM | 66.2 nM | 2340 nM | 76.8 nM | 22.9 nM
9 | CCN1CCN(Cc2ccc(Nc3ncc4c(n3)N(C35CC(C3)C5)C(=O)[C@]3(CCNC3=O)C4)nc2)CC1 [Example D190, (S)-8-(bicyclo[1.1.1]pentan-1-yl)-2-((5-((4-ethylpiperazin-1-yl)methyl)pyridin-2-yl)amino)-5,8-dihydro-7H-spiro[pyrido[2,3-d]pyrimidine-6,3′-pyrrolidine]-2′,7-dione] | – | – | – | – | – | > 100000 nM | 34200 nM | > 100000 nM | 21800 nM | 11400 nM
10 | CN1CCN(c2ccc(Nc3ncc4c(n3)N(C35CC(C3)C5)C(=O)[C@]3(CCNC3=O)C4)cc2F)CC1 [Example D185, (S)-8-(bicyclo[1.1.1]pentan-1-yl)-2-((3-fluoro-4-(4-methylpiperazin-1-yl)phenyl)amino)-5,8-dihydro-7H-spiro[pyrido[2,3-d]pyrimidine-6,3′-pyrrolidine]-2′,7-dione] | – | – | – | – | – | 1060 nM | 31.2 nM | 1170 nM | 36.7 nM | 15.6 nM
11 | CC(C)N1CCN(c2ccc(Nc3ncc4c(n3)N(C35CC(C3)C5)C(=O)[C@]3(CCNC3=O)C4)nc2)CC1 [Example D189, (S)-8-(bicyclo[1.1.1]pentan-1-yl)-2-((5-(4-isopropylpiperazin-1-yl)pyridin-2-yl)amino)-5,8-dihydro-7H-spiro[pyrido[2,3-d]pyrimidine-6,3′-pyrrolidine]-2′,7-dione] | – | – | – | – | – | > 100000 nM | 41600 nM | > 100000 nM | 17700 nM | 28700 nM
12 | CN1CCN(c2ccc(Nc3ncc4c(n3)N(C3CCCC3)C(=O)[C@]3(CCNC3=O)C4)cn2)CC1 [Example D150, (S)-8-cyclopentyl-2-((6-(4-methylpiperazin-1-yl)pyridin-3-yl)amino)-5,8-dihydro-7H-spiro[pyrido[2,3-d]pyrimidine-6,3′-pyrrolidine]-2′,7-dione] | 52.9 nM | 2.34 nM | 402 nM | 6.86 nM | 1.16 nM | – | – | – | – | –
13 | COc1cc(Nc2ncc3c(n2)N(C2CCCC2)C(=O)[C@]2(CCNC2=O)C3)ccc1N1CCN(C(C)C)CC1 [Example D161, (S)-8-cyclopentyl-2-((4-(4-isopropylpiperazin-1-yl)-3-methoxyphenyl)amino)-5,8-dihydro-7H-spiro[pyrido[2,3-d]pyrimidine-6,3′-pyrrolidine]-2′,7-dione] | 30.5 nM | 3.88 nM | 157 nM | 7.27 nM | 1.29 nM | – | – | – | – | –
14 | O=C1NCC[C@@]12Cc1cnc(Nc3ccc(N4CC5(CNC5)C4)cc3)nc1N(C1CCCC1)C2=O [Example D172, (S)-2-((4-(2,6-diazaspiro[3.3]heptan-2-yl)phenyl)amino)-8-cyclopentyl-5,8-dihydro-7H-spiro[pyrido[2,3-d]pyrimidine-6,3′-pyrrolidine]-2′,7-dione] | 79.5 nM | 6.6 nM | 673 nM | 4.81 nM | 2.72 nM | – | – | – | – | –
15 | COc1cc(Nc2ncc3c(n2)N(C2CCCC2)C(=O)[C@]2(CCNC2=O)C3)ccc1N1CCNCC1 [Example D159, (S)-8-cyclopentyl-2-((3-methoxy-4-(piperazin-1-yl)phenyl)amino)-5,8-dihydro-7H-spiro[pyrido[2,3-d]pyrimidine-6,3′-pyrrolidine]-2′,7-dione] | 35 nM | 4.47 nM | 318 nM | 7.34 nM | 1.62 nM | – | – | – | – | –
16 | CCN1CCN(Cc2ccc(Nc3ncc4c(n3)N(C3CCCC3)C(=O)[C@]3(CCNC3=O)C4)nc2)CC1 [Example D155, (S)-8-cyclopentyl-2-((5-((4-ethylpiperazin-1-yl)methyl)pyridin-2-yl)amino)-5,8-dihydro-7H-spiro[pyrido[2,3-d]pyrimidine-6,3′-pyrrolidine]-2′,7-dione] | 3440 nM | 8.58 nM | 14700 nM | 1180 nM | 6.22 nM | – | – | – | – | –
17 | CN(C)[C@H]1CCN(C(=O)c2ccc(Nc3ncc4c(n3)N(C3CCCC3)C(=O)[C@]3(CCNC3=O)C4)cc2)C1 [Example D177, (S)-8-cyclopentyl-2-((4-((S)-3-(dimethylamino)pyrrolidine-1-carbonyl)phenyl)amino)-5,8-dihydro-7H-spiro[pyrido[2,3-d]pyrimidine-6,3′-pyrrolidine]-2′,7-dione] | 50 nM | 13.9 nM | 2940 nM | 19.1 nM | 4.72 nM | – | – | – | – | –
18 | Cc1cc(Nc2ncc3c(n2)N(C2CCCC2)C(=O)[C@]2(CCNC2=O)C3)ccc1N1CCNCC1 [Example D156, (S)-8-cyclopentyl-2-((3-methyl-4-(piperazin-1-yl)phenyl)amino)-5,8-dihydro-7H-spiro[pyrido[2,3-d]pyrimidine-6,3′-pyrrolidine]-2′,7-dione] | 19.8 nM | 2.3 nM | 166 nM | 3.91 nM | 0.92 nM | – | – | – | – | –
19 | CN1CCN(c2ccc(Nc3ncc4c(n3)N(C3CCCC3)C(=O)[C@]3(CCNC3=O)C4)nc2)CC1 [Example D153, (S)-8-cyclopentyl-2-((5-(4-methylpiperazin-1-yl)pyridin-2-yl)amino)-5,8-dihydro-7H-spiro[pyrido[2,3-d]pyrimidine-6,3′-pyrrolidine]-2′,7-dione] | 2440 nM | 3.62 nM | 18400 nM | 316 nM | 2.94 nM | – | – | – | – | –
